From patent publication US20140179664A1, “Heterocyclyl Pyrimidine Analogues As JAK Inhibitors” (Cellzome Limited, priority 2011, published 2014)
pIC50: −log10 of the molar value.

Tests used:
JAK1 = target: T1, JAK1 (Homo sapiens, UniProt P23458); test: Kinobeads assay, JAK1; format: binding; details: mixed Molt4/Ramos lysate, read-out: Inhibition values (IC50) JAK1
T1 construct: endogenous in cells; host or cells: Molt4 (ATCC CRL-1582) and Ramos (ATCC CRL-1596), mixed lysate 1:2
Experimental: After the incubation time the beads with captured proteins were separated from the lysate. Bound proteins were then eluted and the presence of JAK1, JAK2, JAK3 and TYK2 was detected and quantified using specific antibodies in a dot blot procedure and the Odyssey infrared detection system. Dose response curves for individual kinases were generated and IC50 values calculated.
(§1) 5×DP buffer: 250 mM Tris-HCl pH 7.4, 25% Glycerol, 7.5 mM MgCl2, 750 mM NaCl, 5 mM Na3VO4; filter the 5×DP buffer through a 0.22 μm filter and store in aliquots at −80° C. The 5×DP buffer is diluted with H2O to 1×DP buffer containing 1 mM DTT and 25 mM NaF.
Stock solutions of test compounds were prepared in DMSO. […] Starting with this solution a 1:3 dilution series (9 steps) was prepared. For control experiments (no test compound) a buffer containing 2% DMSO was used.
Cells were homogenized in a Potter S homogenizer in lysis buffer: 50 mM Tris-HCl, 0.8% NP40, 5% glycerol, 150 mM NaCl, 1.5 mM MgCl2, 25 mM NaF, 1 mM sodium vanadate, 1 mM DTT, pH 7.5. […] The material was dounced 10 times using a mechanized POTTER S, transferred to 50 mL falcon tubes, incubated for 30 minutes on ice and spun down for 10 minutes at 20,000 g at 4° C. (10,000 rpm in Sorvall SLA600, precooled). […] (33.500 rpm in Ti50.2, precooled). The supernatant was transferred again to a fresh 50 mL falcon tube, the protein concentration was determined by a Bradford assay (BioRad) and samples containing 50 mg of protein per aliquot were prepared. The samples were immediately used for experiments or frozen in liquid nitrogen and stored frozen at −80° C.
Cell lysate (approximately 50 mg protein per plate) was thawed in a water bath at room temperature and then stored on ice. […] The diluted cell lysate was stored on ice. Mixed Molt4/Ramos lysate was prepared by combining one volume of Molt4 lysate and two volumes of Ramos lysate (ratio 1:2).
Plates were sealed and incubated for 3 hours in a cold room on a plate shaker (Heidolph tiramax 1000) at 750 rpm. Afterwards the plate was washed 3 times with 230 μL washing buffer (1×DP 0.4% NP40). […] The eluate was frozen quickly at −80° C. and stored at −20° C.
Afterwards the membrane was washed twice for 10 minutes with PBS buffer containing 0.2% Tween 20 at room temperature. […] Afterwards the membrane was washed twice for 10 minutes each with 1×PBS buffer containing 0.2% Tween 20 at room temperature. Then the membrane was rinsed once with PBS buffer to remove residual Tween 20. The membrane was kept in PBS buffer at 4° C. and then scanned with the Odyssey instrument. Fluorescence signals were recorded and analysed according to the instructions of the manufacturer.

TYK2 = target: T2, TYK2 (Homo sapiens, UniProt P29597); test: Kinobeads assay, TYK2; format: binding; details: mixed Molt4/Ramos lysate, read-out: Inhibition values (IC50) TYK2
T2 construct: endogenous in cells; host or cells: Molt4 (ATCC CRL-1582) and Ramos (ATCC CRL-1596), mixed lysate 1:2
T2 sequence (P29597 whole entry): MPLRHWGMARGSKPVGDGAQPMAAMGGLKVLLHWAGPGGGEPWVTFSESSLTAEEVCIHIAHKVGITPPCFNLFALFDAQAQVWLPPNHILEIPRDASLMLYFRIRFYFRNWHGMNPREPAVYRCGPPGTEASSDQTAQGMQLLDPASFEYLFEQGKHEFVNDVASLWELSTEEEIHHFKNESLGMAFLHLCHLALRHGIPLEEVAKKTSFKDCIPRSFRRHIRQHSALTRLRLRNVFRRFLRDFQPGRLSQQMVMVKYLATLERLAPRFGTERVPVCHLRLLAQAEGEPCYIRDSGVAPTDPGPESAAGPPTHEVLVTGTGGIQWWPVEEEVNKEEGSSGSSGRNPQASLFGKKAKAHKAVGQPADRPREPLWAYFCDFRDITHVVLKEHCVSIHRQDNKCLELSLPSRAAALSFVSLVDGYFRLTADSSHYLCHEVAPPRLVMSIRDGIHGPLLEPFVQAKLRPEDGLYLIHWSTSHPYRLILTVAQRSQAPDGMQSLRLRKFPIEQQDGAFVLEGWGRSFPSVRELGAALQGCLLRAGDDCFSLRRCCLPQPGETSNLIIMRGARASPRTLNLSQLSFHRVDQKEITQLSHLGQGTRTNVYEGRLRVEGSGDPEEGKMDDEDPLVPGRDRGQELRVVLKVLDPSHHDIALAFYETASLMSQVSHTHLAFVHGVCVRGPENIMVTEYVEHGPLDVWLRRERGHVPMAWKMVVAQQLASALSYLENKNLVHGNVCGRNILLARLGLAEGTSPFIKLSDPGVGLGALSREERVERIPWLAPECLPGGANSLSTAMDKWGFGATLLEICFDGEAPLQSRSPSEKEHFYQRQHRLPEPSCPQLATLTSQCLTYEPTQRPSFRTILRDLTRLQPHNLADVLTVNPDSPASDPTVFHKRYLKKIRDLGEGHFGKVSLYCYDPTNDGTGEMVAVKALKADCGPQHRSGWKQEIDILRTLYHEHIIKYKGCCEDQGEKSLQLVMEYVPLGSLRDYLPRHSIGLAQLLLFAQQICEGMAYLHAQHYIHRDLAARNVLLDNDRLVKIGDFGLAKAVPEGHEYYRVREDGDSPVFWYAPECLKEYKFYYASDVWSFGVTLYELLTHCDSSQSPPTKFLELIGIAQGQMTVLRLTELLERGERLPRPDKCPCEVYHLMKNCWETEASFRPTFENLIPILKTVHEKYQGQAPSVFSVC
Experimental: The compounds of the present invention as described in the previous examples were tested in a Kinobeads™ assay as described for ZAP-70 (WO-A 2007/137867). Briefly, test compounds (at various concentrations) and the affinity matrix with the immobilized aminopyrido-pyrimidine ligand 24 were added to cell lysate aliquots and allowed to bind to the proteins in the lysate sample. After the incubation time the beads with captured proteins were separated from the lysate. Bound proteins were then eluted and the presence of JAK1, JAK2, JAK3 and TYK2 was detected and quantified using specific antibodies in a dot blot procedure and the Odyssey infrared detection system. Dose response curves for individual kinases were generated and IC50 values calculated. Kinobeads™ assays for ZAP-70 (WO-A 2007/137867) and for kinase selectivity profiling (WO-A 2006/134056) have been previously described.
The affinity matrix was washed two times with 15 mL of lx DP buffer containing 0.2% NP40 (IGEPAL® CA-630, Sigma, #13021) and then resuspended in 1×DP buffer containing 0.2% NP40 (3% beads slurry).
as §1
Stock solutions of test compounds were prepared in DMSO. In a 96 well plate […] solution of diluted test compounds at 5 mM in DMSO were prepared. Starting with this solution a 1:3 dilution series (9 steps) was prepared. For control experiments (no test compound) a buffer containing 2% DMSO was used.
Molt4 cells (ATCC catalogue number CRL-1582) and Ramos cells (ATCC catalogue number CRL-1596) were grown in 1 L Spinner flasks (Integra Biosciences, #182101) in suspension in RPMI 1640 medium (Invitrogen, #21875-034) supplemented with 10% Fetal Bovine Serum (Invitrogen) at a density between 0.15×10^6 and 1.2×10^6 cells/mL. Cells were harvested by centrifugation, washed once with 1×PBS buffer (Invitrogen, #14190-094) and cell pellets were frozen in liquid nitrogen and subsequently stored at −80° C. Cells were homogenized in a Potter S homogenizer in lysis buffer: 50 mM Tris-HCl, 0.8% NP40, 5% glycerol, 150 mM NaCl, 1.5 mM MgCl2, 25 mM NaF, 1 mM sodium vanadate, 1 mM DTT, pH 7.5. One complete EDTA-free tablet (protease inhibitor cocktail, Roche Diagnostics, 1873580) per 25 mL buffer was added. The material was dounced 10 times using a mechanized POTTER S, transferred to 50 mL falcon tubes, incubated for 30 minutes on ice and spun down for 10 minutes at 20,000 g at 4° C. (10,000 rpm in Sorvall SLA600, precooled). The supernatant was transferred to an ultracentrifuge (UZ)-polycarbonate tube (Beckmann, 355654) and spun for 1 hour at 100.000 g at 4° C. (33.500 rpm in Ti50.2, precooled). The supernatant was transferred again to a fresh 50 mL falcon tube, the protein concentration was determined by a Bradford assay (BioRad) and samples containing 50 mg of protein per aliquot were prepared. The samples were immediately used for experiments or frozen in liquid nitrogen and stored frozen at −80° C.
Cell lysate (approximately 50 mg protein per plate) was thawed in a water bath at room temperature and then stored on ice. To the thawed cell lysate 1×DP 0.8% NP40 buffer containing protease inhibitors (1 tablet for 25 mL buffer; EDTA-free protease inhibitor cocktail; Roche Diagnostics 1873580) was added in order to reach a final protein concentration of 10 mg/mL total protein. The diluted cell lysate was stored on ice. Mixed Molt4/Ramos lysate was prepared by combining one volume of Molt4 lysate and two volumes of Ramos lysate (ratio 1:2).
To a 96 well filter plate (Multiscreen HTS, BV Filter Plates, Millipore #MSBVN1250) were added per well: 100 μL affinity matrix (3% beads slurry), […], of compound solution, and 50 μL of diluted lysate. […]

T1 sequence (P23458 whole entry): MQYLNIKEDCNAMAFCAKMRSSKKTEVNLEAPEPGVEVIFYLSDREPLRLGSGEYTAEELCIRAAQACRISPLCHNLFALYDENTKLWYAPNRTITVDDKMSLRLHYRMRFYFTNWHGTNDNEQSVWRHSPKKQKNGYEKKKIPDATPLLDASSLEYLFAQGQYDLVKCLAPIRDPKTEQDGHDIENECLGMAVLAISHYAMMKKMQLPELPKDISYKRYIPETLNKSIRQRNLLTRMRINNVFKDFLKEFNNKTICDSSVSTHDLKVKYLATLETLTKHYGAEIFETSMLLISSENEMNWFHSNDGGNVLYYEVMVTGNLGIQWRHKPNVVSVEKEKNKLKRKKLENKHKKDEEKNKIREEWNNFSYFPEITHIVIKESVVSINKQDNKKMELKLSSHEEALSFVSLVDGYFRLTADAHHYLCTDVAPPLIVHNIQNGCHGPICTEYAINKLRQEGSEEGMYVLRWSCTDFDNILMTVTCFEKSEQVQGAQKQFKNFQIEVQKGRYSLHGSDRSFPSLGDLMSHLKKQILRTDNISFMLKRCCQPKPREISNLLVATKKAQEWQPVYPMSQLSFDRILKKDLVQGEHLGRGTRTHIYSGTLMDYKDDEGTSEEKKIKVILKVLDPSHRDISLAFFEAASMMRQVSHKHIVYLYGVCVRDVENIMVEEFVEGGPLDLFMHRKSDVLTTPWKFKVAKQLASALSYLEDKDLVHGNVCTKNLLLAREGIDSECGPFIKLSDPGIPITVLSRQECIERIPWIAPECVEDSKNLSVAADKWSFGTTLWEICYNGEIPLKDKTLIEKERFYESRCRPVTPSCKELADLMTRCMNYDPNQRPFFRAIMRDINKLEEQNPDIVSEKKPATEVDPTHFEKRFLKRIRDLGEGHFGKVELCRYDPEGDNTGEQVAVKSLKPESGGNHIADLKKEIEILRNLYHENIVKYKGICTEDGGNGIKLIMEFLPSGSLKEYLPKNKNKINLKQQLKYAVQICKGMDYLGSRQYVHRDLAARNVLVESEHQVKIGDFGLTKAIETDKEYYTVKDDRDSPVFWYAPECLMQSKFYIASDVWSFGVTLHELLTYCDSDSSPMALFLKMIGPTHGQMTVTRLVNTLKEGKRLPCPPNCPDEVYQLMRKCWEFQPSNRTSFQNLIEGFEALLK

SMILES | pIC50 (JAK1) | pIC50 (TYK2)
Cn1cc(Nc2ncc(Cl)c(N[C@H](CO)c3ccccc3)n2)cn1 [Compound 4] | 5.00 to 6.00 | 5.00 to 6.00
CNC(=O)Cn1cc(Nc2ncc(Cl)c(N[C@H](CO)c3cc(F)ccc3F)n2)cn1 [Compound 141] | > 7.00 | 6.00 to 7.00
Cn1cc(Nc2ncc(Cl)c(NC(CO)c3ccccc3Cl)n2)cn1 (stereo not drawn) [Compound 117] | 5.00 to 6.00 | 5.00 to 6.00
NC(=O)Cn1cc(Nc2ncc(Cl)c(N[C@H](CO)c3cc(F)cc(F)c3)n2)cn1 [Compound 144] | > 7.00 | 6.00 to 7.00
Cn1cc(Nc2ncc(C(F)(F)F)c(NC(C)(CO)c3ccccc3)n2)cn1 (stereo not drawn) [Compound 8] | < 5.00 | ≤ 5.00
CCn1cc(Nc2ncc(Cl)c(N[C@H](CO)c3ccccc3OC)n2)cn1 [Compound 95] | 6.00 to 7.00 | 5.00 to 6.00
Cc1cnc(Nc2cnn(C)c2)nc1N[C@H](CO)c1cccc(-c2cnn(C)c2)c1 [Compound 149] | < 5.00 | ≤ 5.00
Cn1cc(-c2cccc(C(CO)Nc3nc(Nc4cnn(CCO)c4)ncc3Cl)c2)cn1 (stereo not drawn) [Compound 94] | 5.00 to 6.00 | ≤ 5.00
CN(C)C(=O)C(Nc1nc(Nc2cnn(CCO)c2)ncc1Cl)c1ccccc1F (stereo not drawn) [Compound 127] | 5.00 to 6.00 | 5.00 to 6.00
Cn1cc(-c2cccc([C@@H](CO)Nc3nc(Nc4cnn(CCO)c4)ncc3Cl)c2)cn1 [Compound 151] | 5.00 to 6.00 | ≤ 5.00
CNC(=O)Cn1cc(Nc2ncc(Cl)c(N[C@H](CO)c3cc(F)cc(F)c3)n2)cn1 [Compound 145] | > 7.00 | 6.00 to 7.00
Cn1cc(-c2cc(F)cc([C@@H](CO)Nc3nc(Nc4cnn(CCO)c4)ncc3F)c2)cn1 [Compound 153] | 5.00 to 6.00 | ≤ 5.00
CNC(=O)Cn1cc(Nc2ncc(C)c(N[C@H](CO)c3ccccc3)n2)cn1 [Compound 133] | 5.00 to 6.00 | 5.00 to 6.00
NCCCn1cc(Nc2ncc(Cl)c(N[C@H](CO)c3ccccc3)n2)cn1 [Compound 113] | 5.00 to 6.00 | 5.00 to 6.00
CNC(=O)Cn1cc(Nc2ncc(F)c(N[C@H](CO)c3cc(F)cc(-c4cnn(C)c4)c3)n2)cn1 [Compound 157] | 5.00 to 6.00 | ≤ 5.00
